From PubChem BioAssay (NCI)
Values joined by “and” are separate entries in the source; they are usually repeats but may differ in a detail not shown here. Equal entries are not always repeated.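 96-well plates; 48 h exposure; 5 concentrations. Endpoints by linear interpolation between flanking doses. Not reached: highest tested concentration assigned. GI50: concentration for 50% inhibition of growth. Definition used: TGI = concentration required for complete inhibition of growth.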

Experiments:
Test in all cases: inhibition of tumour cell growth, NCI panel, 48 h
[1] = tested on: MALME-3M melanoma
[2] = tested on: SF-295 CNS
[3] = tested on: HT29 colon
[4] = tested on: SNB-19 CNS
[5] = tested on: SF-268 CNS
[6] = tested on: UO-31 renal
[7] = tested on: TK-10 renal
[8] = tested on: HCC-2998 colon
[9] = tested on: SF-539 CNS
[10] = tested on: K-562 leukemia

| Compound | GI50 [1] [µM] | TGI [1] | GI50 [2] [µM] | TGI [2] [µM] | GI50 [3] [µM] | TGI [3] | GI50 [4] [µM] | TGI [4] | GI50 [5] [µM] | TGI [5] | GI50 [6] [µM] | TGI [6] | GI50 [7] [µM] | TGI [7] | GI50 [8] [µM] | TGI [8] | GI50 [9] [µM] | TGI [9] | GI50 [10] [µM] | TGI [10] [µM] |
| --- | --- | --- | --- | --- | --- | --- | --- | --- | --- | --- | --- | --- | --- | --- | --- | --- | --- | --- | --- | --- |
| CC(=O)N1N=C(c2ccc(Nc3nc(Nc4ccc(F)cc4)nc(Nc4ccc(F)cc4)n3)cc2)CC1c1ccc(N(C)C)cc1 (centres undefined) | 11.4 | 34.8 µM | 4.34 | 50.7 | 3.79 | 28.9 µM | 16.1 | > 100 µM | 12.8 | 43.3 µM | 5.94 | 35.8 µM | 7.02 | 39.2 µM | 15.9 | > 100 µM | 12.8 | 41.2 µM | 2.69 | 7.31 |
| COC(=O)c1oc2c(C(=O)/C=C/c3ccc(OC)cc3)c(OCCN(C)C)ccc2c1C | 11.4 | 27.8 µM | 14.2 | 29.3 | 3.72 | 9.83 µM | 10.9 | 23.5 µM | 5.63 | 20.5 µM | 5.14 | 18.2 µM | 9.79 | 23 µM | 10.2 | 24.6 µM | 11.3 | 24.1 µM | 2.24 | 8.49 |
| CO[C@H]1CC(O[C@@H]2/C(C)=C/C[C@@H]3C[C@@H](C[C@]4(CC[C@H](C)[C@@H](C5CCCCC5)O4)O3)OC(=O)[C@@H]3C=C(C)/C(=N/O)[C@H]4OC/C(=C\C=C\[C@@H]2C)[C@]43O)O[C@@H](C)C1O (some centres undefined) | 1.17 | 3.15 µM | 0.888 | 1.87 | 0.966 | 2.05 µM | 1.66 | 9.01 µM | 0.982 | 2.45 µM | 0.769 | 1.98 µM | 1.13 | 2.71 µM | 0.831 | 1.57 µM | 0.948 | 1.93 µM | 1.17 | 2.67 |
| O=[N+]([O-])c1cc([N+](=O)[O-])c(Nn2c3ccccc3c3ccccc32)c([N+](=O)[O-])c1 | 0.236 | 4.88 µM and 0.733 µM |  | 0.79 | 0.323 | 8.43 µM and 3.43 µM | 0.376 | 54 µM and > 100 µM | 0.359 | 39 µM and > 100 µM | 0.245 | 6.63 µM and 0.916 µM | 0.315 | 11 µM and > 100 µM | 0.44 | 12.5 µM and 2.63 µM | 0.335 | 15.8 µM and 5.1 µM | 0.297 | > 100 |
| O=C(/C=C\c1cccc2ccccc12)c1ccc(Cl)cc1Cl |  | 65.6 µM |  | 49.9 |  | 35.8 µM |  | 72.9 µM |  | 51.9 µM |  | > 100 µM |  | > 100 µM |  | 92 µM |  | 53.2 µM |  | 38.6 |
| O=C1c2ccccc2C2CCC1c1ccccc12 (centres undefined) |  | 51.8 µM |  | > 100 |  | > 100 µM |  | > 100 µM |  | > 100 µM |  | 70.5 µM |  | 93.9 µM |  | > 100 µM |  | > 100 µM |  | > 100 |
| COC(=O)c1cc2c3ccccc3n3c2c(n1)-c1[nH]c2ccccc2c(=O)c1C3 | > 100 | > 100 µM | 32 | > 100 | > 100 | > 100 µM | 26.3 | > 100 µM | 29.6 | > 100 µM | > 100 | > 100 µM | 23 | 45.9 µM | > 100 | > 100 µM | 20.3 | 77.6 µM | > 100 | > 100 |
